We go through 25 compounds from ChEMBL document CHEMBL5512599, “Synthetic non-toxic anti-biofilm agents as a strategy in combating bacterial resistance” (Eur J Med Chem, 2023).

pIC50: −log10 of the molar value. Values after ≈ are worked out from the molar mass of the structure shown.

Experiment [1] has as its system Staphylococcus aureus. The experiment in a line: Antibiofilm activity against Staphylococcus aureus ATCC 33862 assessed as reduction in biofilm formation at 20 uM incubated for 24 hrs by absorbance based assay relative to control. It is filed as functional. Also noted: scale not given: the % may be the effect or the level left.
Experiment [2] concerns Pseudomonas aeruginosa. The experiment in a line: Antibiofilm activity against Pseudomonas aeruginosa ATCC 10145 assessed as reduction in biofilm formation at 20 uM incubated for 24 hrs by absorbance based assay relative to control. It is filed as functional. Also noted: scale not given: the % may be the effect or the level left.
A short description of experiment [3]: Inhibition of Quorum sensing system Las in Pseudomonas aeruginosa PAO1 assessed as reduction in interaction with LasR regulator.
The subject of experiment [4] is Pseudomonas aeruginosa. The experiment in a line: Antibiofilm activity against Pseudomonas aeruginosa PA14 assessed as inhibition of biofilm formation incubated for 24 hrs by microscopic analysis. Format: functional, organism-based. The conditions noted are these: PA14, 24 h.
In experiment [5] the target is T1, Transcriptional regulator MvfR (Pseudomonas aeruginosa PA14, UniProt A0A072ZLE6).
T1 sequence (A0A072ZLE6 whole entry): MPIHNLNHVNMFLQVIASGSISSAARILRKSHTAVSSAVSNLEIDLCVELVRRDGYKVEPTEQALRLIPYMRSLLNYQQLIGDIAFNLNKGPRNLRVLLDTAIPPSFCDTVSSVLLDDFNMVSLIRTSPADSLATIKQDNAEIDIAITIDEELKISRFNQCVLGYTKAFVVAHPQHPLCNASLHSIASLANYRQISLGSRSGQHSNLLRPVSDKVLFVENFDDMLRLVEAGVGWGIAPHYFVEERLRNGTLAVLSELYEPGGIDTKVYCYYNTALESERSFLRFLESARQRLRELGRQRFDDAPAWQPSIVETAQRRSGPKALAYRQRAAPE
Nature of the experiment: Antagonist activity at PqsR in wild-type Pseudomonas aeruginosa PAO1-L.

In experiment [6] the test system is Staphylococcus aureus. The experiment in a line: Antimicrobial activity against Staphylococcus aureus ATCC 25923 assessed as reduction in bacterial growth at 0.5 uM incubated for 16 hrs by broth dilution method relative to control. Format: functional. On the set-up: scale not given: the % may be the effect or the level left. In general terms: In broth dilution the organism is exposed to a series of concentrations in liquid medium.

The subject of experiment [7] is Staphylococcus aureus. The experiment in a line: Antimicrobial activity against Staphylococcus aureus ATCC 25923 assessed as reduction in bacterial growth at 0.25 uM incubated for 16 hrs by broth dilution method relative to control. Also noted: scale not given: the % may be the effect or the level left. Format: functional.
Experiment [8] deals with Staphylococcus aureus. The experiment in a line: Antimicrobial activity against Staphylococcus aureus ATCC 25923 assessed as reduction in bacterial growth at 0.12 uM incubated for 16 hrs by broth dilution method relative to control. Format: functional. On the set-up: scale not given: the % may be the effect or the level left.
The test system of experiment [9] is Pseudomonas aeruginosa. Nature of the experiment: Anti-motility activity against Pseudomonas aeruginosa PAO1 assessed as reduction in swarming at 20 uM incubated for 16 hrs by crystal violet staining analysis relative to control. Format: functional. On the set-up: scale not given: the % may be the effect or the level left.
Experiment [10] relates to Staphylococcus epidermidis. Nature of the experiment: Antibiofilm activity against Staphylococcus epidermidis assessed as inhibition of biofilm formation at 40 uM measured after 24 hrs by confocal laser scanning microscopy analysis relative to control. Format: functional. On the set-up: scale not given: the % may be the effect or the level left.
A short description of experiment [11]: Inhibition of quorum sensing system in Pseudomonas aeruginosa PAO1 assessed as inhibition of pyocyanin production at 256 ug/ml incubated for 24 hrs by absorbance based assay.
For experiment [12], the system named is Pseudomonas aeruginosa. The experiment in a line: Antibiofilm activity against Pseudomonas aeruginosa PAO1 assessed as inhibition of biofilm formation at 100 uM relative to control. It is filed as functional. Also noted: scale not given: the % may be the effect or the level left.
For experiment [13], the system named is Staphylococcus aureus. Nature of the experiment: Antibacterial activity against Staphylococcus aureus ATCC 25923 assessed as reduction in bacterial growth incubated for 18 to 24 hrs by broth microdilution method. Format: functional. The settings on record: time 18-24 hrs.
The test system of experiment [14] is Staphylococcus aureus. The experiment in a line: Antibacterial activity against Staphylococcus aureus ATCC 29213 assessed as reduction in bacterial growth incubated for 18 to 24 hrs by broth microdilution method. The settings on record: time 18-24 hrs. It is filed as functional.
In experiment [15] the test system is Staphylococcus aureus. Nature of the experiment: Antibacterial activity against Staphylococcus aureus ATCC 6538 assessed as reduction in bacterial growth incubated for 18 to 24 hrs by broth microdilution method. It is filed as functional. The conditions noted are these: time 18-24 hrs.
Experiment [16] has as its system Staphylococcus epidermidis. The experiment in a line: Antibacterial activity against Staphylococcus epidermidis RP62A assessed as reduction in bacterial growth incubated for 18 to 20 hrs by broth microdilution assay. It is filed as functional. The conditions noted are these: time 18-20 hrs.
Experiment [17] is described as follows: Inhibition of Staphylococcus aureus sortase A by FRET assay.
Experiment [18] concerns Enterococcus faecalis. The experiment in a line: Antibacterial activity against Enterococcus faecalis ATCC 29212 assessed as bacterial growth inhibition incubated for 15 to 18 hrs by Muller hinton broth based dilution assay. It is filed as functional. The settings on record: time 15-18 hrs.
The test system of experiment [19] is Enterococcus faecalis. The experiment in a line: Antibiofilm activity against Enterococcus faecalis ATCC 29212 assessed as biofilm eradication incubated for 20 mins by crystal violet staining based analysis. Format: functional.
Another experiment relates to Klebsiella pneumoniae. The experiment in a line: Antibiofilm activity against Klebsiella pneumoniae ATCC 13882 assessed as inhibition of biofilm formation incubated for 24 hrs by crystal violet staining based broth microdilution method. The settings on record: ATCC 13882, 24 h. Format: functional, organism-based.
The target in experiment [20] is T1, Transcriptional regulator MvfR. Nature of the experiment: Antagonist activity at PqsR in wild-type Pseudomonas aeruginosa PAO1 assessed as reduction in AQ level at 0.2 uM by LCMS/MS analysis.
Experiment [21] deals with Staphylococcus aureus. The experiment in a line: Antibiofilm activity against Methicillin-resistant Staphylococcus aureus ATCC BAA-4A assessed as inhibition of biofilm formation. Format: functional, organism-based.
Experiment [22] concerns Pseudomonas aeruginosa. The experiment in a line: Antibiofilm activity against Pseudomonas aeruginosa PAO1 assessed as inhibition of biofilm formation incubated at 100 uM incubated for 24 hrs by crystal violet staining based analysis relative to control. It is filed as functional. Also noted: scale not given: the % may be the effect or the level left.
In experiment [23] the test system is Pseudomonas aeruginosa. Nature of the experiment: Antibiofilm activity against Pseudomonas aeruginosa PAO1 assessed as inhibition of biofilm formation incubated at 15 uM relative to control. Format: functional. On the set-up: scale not given: the % may be the effect or the level left.
For experiment [24], the system named is Staphylococcus aureus. The experiment in a line: Antibiofilm activity against Staphylococcus aureus ATCC 25923 at 25 ug/ml measured after 24 hrs by crystal violet staining based analysis relative to control. The settings on record: dose 25 µg/ml. It is filed as functional.
The nature of experiment [25]: Inhibition of quorum sensing system in Pseudomonas aeruginosa PA14 assessed as inhibition of pyocyanin production.
Experiment [26] relates to Pseudomonas aeruginosa. Nature of the experiment: Antibiofilm activity against Pseudomonas aeruginosa ATCC 27853 assessed as inhibition of biofilm formation at 0.5 times of MIC by crystal violet staining based analysis relative to control. Format: functional. On the set-up: scale not given: the % may be the effect or the level left.

For the compound `CCCCCCCCCCCCCCCC(=O)Nc1cc(=O)c2ccccc2[nH]1`, the Activity result in the experiment on Staphylococcus aureus [1] and with Pseudomonas aeruginosa [2] was “>=50%” in each case. As for `CCCCCCCCCC(=O)NC1CCCC1` [N-CYCLOPENTYLDECANAMIDE], in experiment [3], the pIC50 was 4.10. Regarding `CCCCCCN(CCCCCC)C(=O)CCCc1c[nH]c(N)n1`, in the experiment on Pseudomonas aeruginosa [4], the pIC50 is 4.22. With `CCCCCCCCCc1nc2cc(F)ccc2c(=O)n1N`, the pIC50 in experiment [5] is 5.92. Consider `Cc1ccc(C(=O)c2nn(-c3nc(-c4ccccc4)c(-c4sc(-n5nc(C(=O)c6ccc(C(F)(F)F)cc6)c(C(N)=O)c5N)nc4-c4ccccc4)s3)c(N)c2C(N)=O)cc1`, for which the results for the Activity with Staphylococcus aureus [6], in the experiment with Staphylococcus aureus [7] and with Staphylococcus aureus [8] were 77%, 50% and 35%, respectively. For the compound `CCOC(=O)C1S/C(=N\N=C\c2cccc(Cl)c2)N(c2ccc(S(N)(=O)=O)cc2)C1=O` (stereo unspecified), the Activity came to 72% with Pseudomonas aeruginosa [9] and 80% in experiment [10]. For the compound `CCCCCCCCCCCC(=O)Nc1cc(=O)c2ccccc2[nH]1`, the Activity result in the experiment on Staphylococcus aureus [1] and in the experiment with Pseudomonas aeruginosa [2] was “>=50%” in each case. Consider `N#Cc1ccnc(C(F)F)c1`, for which the negative-log IC50 (pIC50) in experiment [11] is 4.77. Also, the Activity in the experiment with Pseudomonas aeruginosa [12] is reported as 73%. For `COC(=O)c1ccnc(C(F)F)c1` the same measures were 4.57 and 85%. As to `CCCCCCCCCCCc1c[nH]c(N)n1`, the pIC50 in the experiment on Pseudomonas aeruginosa [4] was 4.72.

Take `CCCCCCCCCCCCCC(=O)Nc1cc(=O)c2ccccc2[nH]1`: the Activity result in the experiment on Staphylococcus aureus [1] and in the experiment on Pseudomonas aeruginosa [2] was “>=50%” in each case. `CC(=O)/C(=N\Nc1cccc(Cl)c1)C(=O)O`: the minimal inhibitory concentration (MIC) (in the experiment on Staphylococcus aureus [13]; in the experiment with Staphylococcus aureus [14]; with Staphylococcus aureus [15]; in experiment [16]) was greater than 270 µM throughout. The same compound gave a negative logarithm of the IC50 (pIC50) in experiment [17] of 4.06. `NC(=O)c1cc(-c2csc(-c3ccc(-c4cnc(-c5ccccc5)s4)cc3)n2)ccc1O`: the MIC in the experiment with Enterococcus faecalis [18] was determined as 0.25 µg/mL (≈ 0.549 µM). The MBEC in the experiment with Enterococcus faecalis [19] was 0.008 µg/mL. In the case of `CCCCCCCCCCCC(=O)Nc1c(N)[nH]c2ccccc2c1=O`, the Activity entry in the experiment on Staphylococcus aureus [1] and in the experiment with Pseudomonas aeruginosa [2] was “>=50%” each time. Regarding `Nc1nccc(-c2cccc(NC(=O)c3cc(Cl)cc(Cl)c3)c2)n1`, the pIC50 in the experiment with Klebsiella pneumoniae was 4.58. `N#CCc1ccc(OC[C@H](O)Cn2cnc3ccc(Cl)cc3c2=O)cc1`: in experiment [20], the negative-log IC50 (pIC50) is 5.96.

In the case of `CCCCCc1ccc(C(=O)NCCn2cc(CCCCCc3[nH]cnc3-c3cnc4ccccc4c3)nn2)cc1`, the pIC50 in the experiment on Staphylococcus aureus [21] is 5.43.

Regarding `CC(=O)/C(=N\Nc1ccc(Cl)c(Cl)c1)C(=O)O`, the MIC (in the experiment on Staphylococcus aureus [13]; with Staphylococcus aureus [14]; with Staphylococcus aureus [15]; in experiment [16]) was greater than 270 µM throughout. Besides, the negative logarithm of the IC50 (pIC50) in [17] is 4.30. In the case of `O=C(CCCNc1ccc(Cl)cc1)NC1CCOC1=O` (stereo unspecified), the Activity in the experiment on Pseudomonas aeruginosa [22] came out at 70%. On to `Cc1cccc(NC(=O)CC(=O)CSC(=S)N[C@@H]2CCOC2=O)c1`, for which the Activity in the experiment with Pseudomonas aeruginosa [23] worked out at 35%. As for `O=C(CCCNc1ccc(F)cc1)NC1CCOC1=O` (stereo unspecified), the Activity with Pseudomonas aeruginosa [22] amounted to 70%. On to `COc1ccc(-c2csc(-c3ccc(-c4cnc(-c5ccccc5)s4)cc3)n2)cc1`, for which the minimal inhibitory concentration (MIC) in the experiment with Enterococcus faecalis [18] came to 0.062 µg/mL (≈ 0.145 µM). Also, the MBEC in the experiment with Enterococcus faecalis [19] amounted to 0.004 µg/mL.

For the compound `Cc1nn(C)c([N-]C(=O)c2ccc(Cl)cc2)c1[N+]#N`, in the experiment with Staphylococcus aureus [24], the Activity was determined as 69%. Take `N#Cc1ccc(-c2csc(-c3ccc(-c4cnc(-c5ccccc5)s4)cc3)n2)cc1`: the MIC in the experiment with Enterococcus faecalis [18] turned out to be 0.062 µg/mL (≈ 0.147 µM). Further, the MBEC in the experiment with Enterococcus faecalis [19] was determined as 0.002 µg/mL. With `NCCCCCCCCCCCCNc1ccnc2cc(C(F)(F)F)ccc12`, in [25], the pIC50 was 4.30. Moreover, the Activity in the experiment on Pseudomonas aeruginosa [26] is reported as 75%.

As usually defined, the pIC50 is the IC50 on a negative log10 scale, so that one unit is a factor of ten. The MIC is the lowest concentration found to suppress growth.
